Laboratory results published in the NIST ThermoML archive (doi:10.1021/acs.jced.6b00833).
Numbers after ± are expanded uncertainties.

Conditions: 101.33 kPa, Liquid, Vibrating tube method

Row | mass density (293.15 K) [kg/m3] | mass density (298.15 K) [kg/m3] | mass density (303.15 K) [kg/m3] | mass density (308.15 K) [kg/m3] | mass density (313.15 K) [kg/m3] | mass density (318.15 K) [kg/m3] | mass density (323.15 K) [kg/m3] | mass density (328.15 K) [kg/m3] | mass density (333.15 K) [kg/m3] | mass density (338.15 K) [kg/m3] | mass density (343.15 K) [kg/m3] | mass density (348.15 K) [kg/m3] | mass density (353.15 K) [kg/m3] | mass density (358.15 K) [kg/m3] | mass density (363.15 K) [kg/m3] | SMILES | mass density (298.48 K) [kg/m3]
1 | 1100.42 ± 6.6 | 1095.41 ± 6.6 | 1090.38 ± 6.5 | 1085.36 ± 6.5 | 1080.34 ± 6.5 | 1075.32 ± 6.5 | 1070.31 ± 6.4 | 1065.29 ± 6.4 | 1060.28 ± 6.4 | 1055.26 ± 6.3 | 1050.23 ± 6.3 | 1045.21 ± 6.3 | 1040.19 ± 6.2 | 1035.15 ± 6.2 | 1030.12 ± 6.2 | C[S+](C)[O-] [dimethyl sulfoxide] | 
2 |  |  |  |  |  |  |  |  |  |  |  |  |  |  |  | CCCC[N+](C)(C)C.O=S(=O)([N-]S(=O)(=O)C(F)(F)F)C(F)(F)F [butyltrimethylammonium bis(trifluoromethylsulfonyl)imide] | 1392.89 ± 8.4
3 |  | 1026.76 ± 6.2 | 1023.9 ± 6.2 | 1021.05 ± 6.2 | 1018.22 ± 6.2 | 1015.41 ± 6.1 | 1012.62 ± 6.1 | 1009.85 ± 6.1 | 1007.08 ± 6.1 | 1004.33 ± 6.1 | 1001.6 ± 6.1 | 998.88 ± 6 | 996.18 ± 6 | 993.49 ± 6 | 990.81 ± 6 | CCC[N+]1(C)CCCC1.N#CN=C=[N-] [1-methyl-1-propylpyrrolidinium dicyanamide] | 
4 |  | 1097.83 ± 6.9 | 1094.72 ± 6.9 | 1091.64 ± 6.9 | 1088.57 ± 6.8 | 1085.52 ± 6.8 | 1082.49 ± 6.8 | 1079.48 ± 6.8 | 1076.48 ± 6.8 | 1073.49 ± 6.7 | 1070.51 ± 6.7 | 1067.55 ± 6.7 | 1064.6 ± 6.7 | 1061.66 ± 6.7 | 1058.74 ± 6.6 | CC(=O)[O-].CCn1cc[n+](C)c1 [1-ethyl-3-methylimidazolium acetate] | 
5 |  | 950.7 ± 5.9 | 947.9 ± 5.9 | 945 ± 5.9 | 942.1 ± 5.9 | 939.2 ± 5.8 | 936.3 ± 5.8 | 933.5 ± 5.8 |  |  |  |  |  |  |  | CCCC[P+](C)(CCCC)CCCC.O=C[O-] [tributylmethylphosphonium formate] | 
